# Results: patent EP2045247B1, “Compounds for the inhibition of histone deacetylase” (NatureWise Biotech & Medicals Corporation, priority 2007, dated 2009)
# Test system: breast cancer MCF-7 cells
# Assay: Inhibition of growth and change of morphology of MCF-7 cells
# Type: cell-based, human
# Procedure: The breast cancer MCF-7 cells, were cultured in Dulbecco's modified Eagle's medium (DMEM; Gibco) supplemented with penicillin G, streptomycin sulphate, 0.5 mM of L-glutamine and 10% fetal bovine serum (FBS; Gibco) at 37 °C, 5% CO2 and 95% relative humidity. The cells were seeded at a density of 3×10^5 per well of 6-well plates. After 24 hours, the cells were treated with different concentrations of compound NBM-HD-1 and 4mM sodium butyrate being used as the positive control. The cells were observed after 48 hours and counted after 96 hours. […] In Fig. 8(A), after the cells were incubated with 2.5 µg/mL (Fig. 8(A)-b), 5 µg/mL (Fig. 8(A)-c) and 10 µg/mL (Fig. 8(A)-d) of NBM-HD-1 for 48 hours, the density of MCF-7 cells reduced dramatically in comparison with that of the control group (Fig. 8(A)-a). The morphology of the MCF-7 cells in the experimental group changed in comparison with that in the control group. […] The results of the cell counting (FIG. 8(B)) indicate that, similar to sodium butyrate, NBM-HD-1 inhibits cell growth.
# MCF-7 cancer cells were seeded at a density of 3×10^5 per well in 6-well plates. After 24 hours, the cells were treated with different concentrations of compound NBM-HD-2 and 4mM sodium butyrate being used as the positive control. The cells were observed and counted after 72 hours. […] In Fig. 13(A), after the cells were incubated with 2.5 µg/mL (Fig. 13(A)-c), 5 µg/mL (Fig. 13(A)-d), 7.5 µg/mL (Fig. 13(A)-e) and 10 µg/mL (Fig. 13(A)-f) of NBM-HD-2 for 72 hours, the density of MCF-7 cells reduced dramatically in comparison with that of the control group (Fig. 13(A)-a). The morphology of the MCF-7 cells in the experimental group changed in comparison with that in the control group.
# MCF-7 cancer cells were seeded at a density of 3×10^5 per well of 6-well plates. After 24 hours, the cells were treated with different concentrations of compound NBM-HD-3 and 4mM sodium butyrate, which was being used as the positive control. The cells were observed and counted after 72 hours. […] In Fig. 14(A), after the cells were incubated with 2.5 µg/mL (Fig. 14(A)-c), 5 µg/mL (Fig. 14(A)-d), 7.5 µg/mL (Fig. 14(A)-e) and 10 µg/mL (Fig. 14(A)-f) of NBM-HD-3 for 72 hours, the density of MCF-7 cells reduced dramatically in comparison with that of the control group (Fig. 14(A)-a). The morphology of the MCF-7 cells in the experimental group changed in comparison with that in the control group. […] The results of the cell counting (FIG. 14(B)) indicate that, similar to sodium butyrate, NBM-HD-3 inhibits cell growth.
smiles,measurement,setting,value
COc1cc2c(c(OC)c1CCC(C)(C)O)C(=O)C[C@@H](c1ccc(OC)c(OC)c1C/C=C(\C)CCCC(C)(C)O)O2 [NBM-HD-1],morphology of MCF-7 cells,"2.5, 5 and 10 µg/mL, 48 hours (Fig. 8(A))",change their morphology
same,growth of MCF-7 cancer cells,"NBM-HD-1 2.5, 5 and 10 µg/mL, sodium butyrate 4mM, observed after 48 hours, counted after 96 hours (Fig. 8)",can inhibit the growth of MCF-7 cancer cells in a dose-dependent manner
